From patent EP2647626A1, “1-Aza-spiro[4.5]dec-3-ene and 1,8-diaza-spiro[4.5]dec-3-ene derivatives as pesticides” (Syngenta Participations AG, priority 2012, dated 2013)
Where two headings read alike, the source gives them in different places.

Experiments:
Assay type in all cases: in vivo
[1] = tested on: Myzus persicae (green peach aphid); assay: Activity against Myzus persicae, mixed population, feeding/residual contact activity on sprayed cabbage plants; settings: 144 h, read-out: activity against Myzus persicae
Procedure: (§1) (mixed population, feeding/residual contact activity, plant damage evaluation)
(§2) Cabbage plants infested with a mixed population of Myzus persicae were treated with diluted test solutions of the compounds in a spray chamber. 6 days after treatment, samples were checked for mortality and for plant damage (phytotoxicity), visual assessment being made using a 0-100% rating scale (100% = total damage to plant; 0% = no damage to plant).

[2] = tested on: cabbage plants; assay: Plant damage evaluation (phytotoxicity) on sprayed cabbage plants, visual 0-100% rating scale; settings: concentration of 200ppm; 6 days after treatment; 100% = total damage to plant, 0% = no damage to plant
Procedure: Example B5: Activity against Myzus persicae (green peach aphid)
as §1, §2

[3] = tested on: Myzus persicae (green peach aphid); assay: Activity against Myzus persicae, mixed population, systemic/feeding activity, curative (pea seedling roots in test solution); settings: 144 h, read-out: activity
Excerpt: Example B2: Activity against Myzus persicae (green peach aphid) (mixed population, systemic/feeding activity, curative)
Roots of pea seedlings, infested with an aphid population of mixed ages, were placed directly in the test solutions. 6 days after introduction, samples were checked for mortality and special effects on the plant.

[4] = tested on: Tetranychus urticae (two-spotted spider mite); assay: Activity against Tetranychus urticae, mixed population, feeding/residual contact activity, preventive (bean leaf discs); settings: foliar, 192 h, concentration of 400ppm, egg, larval and adult mortality checked 8 days later, bean leaf discs sprayed
Excerpt: Example B4: Activity against Tetranychus urticae (two-spotted spider mite)
(mixed population, feeding/residual contact activity, preventive)
Bean leaf discs on agar in 24-well microtiter plates were sprayed with test solutions. After drying, the leaf discs were infested with mite populations of mixed ages. 8 days later, discs were checked for egg mortality, larval mortality, and adult mortality.

[5] = tested on: Myzus persicae (green peach aphid); assay: Activity against Myzus persicae, mixed population, feeding/residual contact activity, preventive (sunflower leaf discs); settings: foliar, 144 h, read-out: activity
Procedure: Example B1: Activity against Myzus persicae (green peach aphid) (mixed population, feeding/residual contact activity, preventive)
Sunflower leaf discs were placed on agar in a 24-well microtiter plate and sprayed with test solutions. After drying, the leaf discs were infested with an aphid population of mixed ages. After an incubation period of 6 days, samples were checked for mortality and special effects (e.g. phytotoxicity).

[6] = concentration of 200ppm, mortality 6 days after treatment, cabbage plants, spray chamber
[7] = concentration of 400ppm, mortality checked 6 days after introduction, roots of pea seedlings in test solution
[8] = concentration of 400ppm, mortality checked after 6 days, sunflower leaf discs sprayed

Compound | mortality at 200 ppm [1, 6] [%] | damage to cabbage plants [2] [%] | mortality at 200 ppm [1] [%] | mortality at 400 ppm [3, 7] [%] | mortality at 400 ppm [4] [%] | mortality at 400 ppm [5, 8] [%] | mortality at 400 ppm [5] [%] | mortality at 400 ppm [3] [%]
CO[C@H]1CC[C@@]2(CC1)C(=O)C(c1cc(C)ccc1C)C(=O)N2c1ccccc1 (relative stereo) [P2.1, cis-3-(2,5-dimethyl-phenyl)-8-methoxy-1-phenyl-1-aza-spiro[4.5]decane-2,4-dione] | ≥ 80 |  |  |  |  |  |  | 
CCOC(=O)OC1=C(c2cc(C)ccc2C)C(=O)N(c2ccccc2)[C@]12CC[C@@H](OC)CC2 [P1.1, carbonic acid cis-3-(2,5-dimethyl-phenyl)-8-methoxy-2-oxo-1-phenyl-1-aza-spiro[4.5]dec-3-en-4-yl ester ethyl ester] | ≥ 80 |  |  |  |  |  |  | 
CCOC(=O)OC1=C(c2cc(C)ccc2C)C(=O)N(c2ccccc2)C12CCN(OC)CC2 [P1.2] |  | ≤ 10 | ≥ 80 | > 80 | > 80 |  |  | 
CCOC(=O)OC1=C(c2c(C)cc(Br)cc2C)C(=O)N(c2ccccc2)C12CCN(OC)CC2 [P1.3] |  | ≤ 10 | ≥ 80 | > 80 | > 80 | > 80 |  | 
CCOC(=O)OC1=C(c2c(C)cc(C)cc2C)C(=O)N(c2ccccc2)C12CCN(OC)CC2 [P1.4] |  |  |  | > 80 |  |  |  | 
CCOC(=O)OC1=C(c2c(C)cc(Cl)cc2C)C(=O)N(c2ccccc2)C12CCN(OC)CC2 [P1.5] |  | ≤ 10 | ≥ 80 | > 80 |  | > 80 |  | 
CON1CCC2(CC1)C(=O)C(c1cc(C)ccc1C)C(=O)N2c1ccccc1 (centres unmarked) [P2.2] |  | ≤ 10 | ≥ 80 |  |  |  |  | 
CON1CCC2(CC1)C(=O)C(c1c(C)cc(Br)cc1C)C(=O)N2c1ccccc1 (centres unmarked) [P2.3] |  | ≤ 10 | ≥ 80 | > 80 | > 80 | > 80 |  | 
CON1CCC2(CC1)C(=O)C(c1c(C)cc(C)cc1C)C(=O)N2c1ccccc1 (centres unmarked) [P2.4] |  | ≤ 10 | ≥ 80 | > 80 | > 80 | > 80 |  | 
CON1CCC2(CC1)C(=O)C(c1c(C)cc(Cl)cc1C)C(=O)N2c1ccccc1 (centres unmarked) [P2.5, 3-(4-chloro-2,6-dimethyl-phenyl)-8-methoxy-1-phenyl-1,8-diaza-spiro[4.5]decane-2,4-dione] |  | ≤ 10 | ≥ 80 |  |  |  | > 80 | > 80
